Results from patent US10765114B2, “4-amino-6-(pyridyl and 2-substitutedphenyl)-picolinates and 6-amino-2-(pyridyl and 2-substitutedphenyl)-pyrimidine-4-carboxylates and their use as herbicides” (Dow AgroSciences LLC, priority 2013, dated 2020).
Read-outs that look alike come from different tables or passages of the source.

What was measured:
[1] = system: Key Broadleaf Weed and Crop Species; assay: Post-Emergent Test II (Table 5); type: in vivo; details: post-emergence, 336 h; for pest or weed control at 70 g/ha: application rate 70 (kg ai/ha; footnote: g ai/ha); for pest or weed control at 140 g/ha: application rate 140 (kg ai/ha; footnote: g ai/ha)
In short: (§1)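 Visual injury ratings (0 = no injury, 100 = complete kill) taken 14 days after treatment, relative to untreated controls. Compounds, in an acetone/DMSO aqueous carrier with crop oil and surfactant, were applied by track sprayer at 187 L/ha, in a twofold dilution series from the top rate, to plants at the first to second true-leaf stage.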

[2] = system: Key Grass and Sedge Weeds as well as Grass Crops; assay: Post-Emergent Test II (Table 6); type: in vivo; details: post-emergence, 336 h, 14 days after application; for pest or weed control at 70 g/ha: 70 g ai/ha; for pest or weed control at 140 g/ha: 140 g ai/ha
In short: as §1

[3] = Abutilon theophrasti, ABUTH: velvetleaf (Abutilon theophrasti), read-out: Visual Growth Reduction (%) 14 Days After Application ABUTH
[4] = Amaranthus retroflexus, AMARE: redroot pigweed (Amaranthus retroflexus), read-out: Visual Growth Reduction (%) 14 Days After Application AMARE
[5] = Brassica napus, BRSSS: oilseed rape, canola (Brassica napus), read-out: Visual Growth Reduction (%) 14 Days After Application BRSSS
[6] = Chenopodium album, CHEAL: lambsquarters (Chenopodium album), read-out: Visual Growth Reduction (%) 14 Days After Application CHEAL
[7] = Euphorbia heterophylla, EPHHL: wild poinsettia (Euphorbia heterophylla), read-out: Visual Growth Reduction (%) 14 Days After Application EPHHL
[8] = Helianthus annuus, HELAN: sunflower (Helianthus annuus), read-out: Visual Growth Reduction (%) 14 Days After Application HELAN
[9] = Viola tricolor, VIOTR: wild pansy (Viola tricolor), read-out: Visual Growth Reduction (%) 14 Days After Application VIOTR
[10] = CYPSS, read-out: Visual Growth Reduction (%) 14 Days After Application CYPSS
[11] = DIGSA: crabgrass (Digitaria sanguinalis), read-out: Visual Growth Reduction (%) 14 Days After Application DIGSA
[12] = ECHSS, read-out: Visual Growth Reduction (%) 14 Days After Application ECHSS
[13] = ORYSS (crop), read-out: Visual Growth Reduction (%) 14 Days After Application ORYSS
[14] = SETFA: giant foxtail (Setaria faberi), read-out: Visual Growth Reduction (%) 14 Days After Application SETFA
[15] = SORVU: grain sorghum (Sorghum vulgare), read-out: Visual Growth Reduction (%) 14 Days After Application SORVU
[16] = TRZSS (crop), read-out: Visual Growth Reduction (%) 14 Days After Application TRZSS
[17] = ZEAMX: maize, corn (Zea mays), read-out: Visual Growth Reduction (%) 14 Days After Application ZEAMX

Row | Structure (SMILES) | pest or weed control at 70 g/ha [1, 3] | pest or weed control at 140 g/ha [1, 3] | pest or weed control at 70 g/ha [1, 4] | pest or weed control at 70 g/ha [1, 5] | pest or weed control at 140 g/ha [1, 5] | pest or weed control at 70 g/ha [1, 6] | pest or weed control at 140 g/ha [1, 6] | pest or weed control at 70 g/ha [1, 7] | pest or weed control at 140 g/ha [1, 7] | pest or weed control at 70 g/ha [1, 8] | pest or weed control at 140 g/ha [1, 8] | pest or weed control at 70 g/ha [1, 9] | pest or weed control at 140 g/ha [1, 9] | pest or weed control at 70 g/ha [2, 10] | pest or weed control at 140 g/ha [2, 10] | pest or weed control at 70 g/ha [2, 11] | pest or weed control at 140 g/ha [2, 11] | pest or weed control at 70 g/ha [2, 12] | pest or weed control at 140 g/ha [2, 12] | pest or weed control at 70 g/ha [2, 13] | also measured
1 | COC(=O)c1nc(-c2ccc(OC)nc2Cl)c(F)c(N)c1Cl [Compound 88, methyl 4-amino-2′,5-dichloro-3-fluoro-6′-methoxy-[2,3′-bipyridine]-6-carboxylate] | 75 to 84% | 95 to 100% | 85 to 94% | 85 to 94% | 85 to 94% | 95 to 100% | 95 to 100% | 0 to 29% | 0 to 29% | 75 to 84% | 85 to 94% | 0 to 29% | 0 to 29% | 0 to 29% | 0 to 29% | 0 to 29% | 0 to 29% | 0 to 29% | 0 to 29% | 0 to 29% | pest or weed control at 140 g/ha [2, 13]: 0 to 29%; pest or weed control at 70 g/ha [2, 14]: 0 to 29%; pest or weed control at 140 g/ha [2, 14]: 45 to 59%; pest or weed control at 70 g/ha [2, 15]: 0 to 29%; pest or weed control at 140 g/ha [2, 15]: 0 to 29%; pest or weed control at 70 g/ha [2, 16]: 0 to 29%; pest or weed control at 140 g/ha [2, 16]: 0 to 29%; pest or weed control at 70 g/ha [2, 17]: 0 to 29%; pest or weed control at 140 g/ha [2, 17]: 0 to 29%; melting point: 164 to 165 °C
2 | COC(=O)c1nc(-c2ccc(C)nc2)c(F)c(N)c1Cl [Compound 90] | 85 to 94% | 95 to 100% | 95 to 100% | 60 to 74% | 75 to 84% | 95 to 100% | 95 to 100% | 85 to 94% | 95 to 100% | 95 to 100% | 95 to 100% | 0 to 29% | 45 to 59% | 0 to 29% | 0 to 29% | 0 to 29% | 45 to 59% | 75 to 84% | 75 to 84% | 0 to 29% | pest or weed control at 140 g/ha [1, 4]: 95 to 100%; pest or weed control at 140 g/ha [2, 13]: 0 to 29%; pest or weed control at 70 g/ha [2, 14]: 45 to 59%; pest or weed control at 140 g/ha [2, 14]: 60 to 74%; pest or weed control at 70 g/ha [2, 15]: 45 to 59%; pest or weed control at 140 g/ha [2, 15]: 45 to 59%; pest or weed control at 70 g/ha [2, 16]: 30 to 44%; pest or weed control at 140 g/ha [2, 16]: 30 to 44%; pest or weed control at 70 g/ha [2, 17]: 95 to 100%; pest or weed control at 140 g/ha [2, 17]: 95 to 100%; melting point: 191 °C
3 | Cc1c(F)c(Cl)cc(F)c1-c1cc(N)c(Cl)c(C(=O)O)n1 [Compound 92, 4-amino-3-chloro-6-(4-chloro-3,6-difluoro-2-methylphenyl)picolinic acid] | 95 to 100% | 95 to 100% | 95 to 100% | 95 to 100% | 95 to 100% | 95 to 100% | 95 to 100% | 0 to 29% | 30 to 44% | 95 to 100% | 95 to 100% | 60 to 74% | 75 to 84% | 0 to 29% | 0 to 29% | 0 to 29% | 0 to 29% | 0 to 29% | 0 to 29% | 0 to 29% | pest or weed control at 140 g/ha [1, 4]: 95 to 100%; pest or weed control at 140 g/ha [2, 13]: 0 to 29%; pest or weed control at 70 g/ha [2, 14]: 0 to 29%; pest or weed control at 140 g/ha [2, 14]: 0 to 29%; pest or weed control at 70 g/ha [2, 15]: 0 to 29%; pest or weed control at 140 g/ha [2, 15]: 0 to 29%; pest or weed control at 70 g/ha [2, 16]: 30 to 44%; pest or weed control at 140 g/ha [2, 16]: 60 to 74%; pest or weed control at 70 g/ha [2, 17]: 0 to 29%; pest or weed control at 140 g/ha [2, 17]: 0 to 29%; melting point: 160 to 162 °C
